Experimental findings from ChEMBL document CHEMBL1201862, “PubChem BioAssay data set” (2004) are described below.

Structures are written as SMILES. The source made the active and inactive calls.

Test [1] has as its target Beta-galactosidase (Escherichia coli, UniProt Q8VNN2). Type of test: functional.
Test [2] is described as follows: Luminescence Cell-Based Dose Confirmation HTS to Identify Activators of 5'UTR Stem-Loop Driven Alpha-Synuclein mRNA Translation in H4 Neuroglioblastoma Cells. [Related pubchem assays: 1829 (Project Summary), 1814 (Primary HTS)]. The test is classed as functional.
The nature of test [3]: Luminescence Cell-Based Dose Response HTS to Identify Activators of Luciferase Translation or Activity in H4-C Neuroglioblastoma Cells. [Related pubchem assays: 1829 (Project Summary), 1814 (Primary HTS)]. Type of test: functional.
A short description of test [4]: Luminescence Cell-Based Dose Response to Identify Activators of Luciferase Translation or Activity in H4-C Neuroglioblastoma Cells. [Related pubchem assays: 1829 (Project Summary), 1814 (Primary HTS)]. The test is classed as functional.
A short description of test [5]: Luminescence Cell-Based Dose Response HTS to Identify Activators of 5'UTR Stem-Loop Driven Prion Protein mRNA Translation in H4-C Neuroglioblastoma Cells. [Related pubchem assays: 1829 (Project Summary), 1814 (Primary HTS)]. Type of test: functional.
The nature of test [6]: Luminescence Cell-Based Dose Confirmation to Identify Activators of 5'UTR Stem-Loop Driven Alpha-Synuclein mRNA Translation in H4 Neuroglioblastoma Cells. [Related pubchem assays: 1829 (Project Summary), 1814 (Primary HTS)]. Type of test: functional.
A short description of test [7]: Luminescence Cell-Based Dose Response to Identify Activators of 5'UTR Stem-Loop Driven Prion Protein mRNA Translation in H4-C Neuroglioblastoma Cells. [Related pubchem assays: 1829 (Project Summary), 1814 (Primary HTS)]. Type of test: functional.
For test [8], the system named is H4. Kind of test: Luminescence Cell-Based Dose Response HTS to Identify Activators of 5'UTR Stem-Loop Driven Prion Protein mRNA Translation in H4 Neuroglioblastoma Cells. [Related pubchem assays: 1829 (Project Summary), 1814 (Primary HTS)]. The test is classed as functional. The note with it: Homo sapiens.
Test [9] can be described thus: Luminescence Cell-Based Dose Response HTS to Identify Activators of Luciferase Translation or Activity in H4 […] Cells. [Related pubchem assays: 1829 (Project Summary), 1814 (Primary HTS)]. The test is classed as functional.
The nature of test [10]: Luminescence Cell-Based Dose Retest to Confirm Activators of 5'UTR Stem-Loop Driven Alpha-Synuclein mRNA Translation in H4 Neuroglioblastoma Cells. [Related pubchem assays (depositor defined):AID1813, AID1829]. The test is classed as functional.
Test [11] deals with Wee1-like protein kinase (Homo sapiens, UniProt P30291). In words: Dose Response Cell-based Assay for Inhibitors of Wee1 Degradation. [Related pubchem assays: 1410, 1321 ]. Type of test: functional.
The target of test [12] is G2/mitotic-specific cyclin-B1 (Homo sapiens, UniProt P14635). Kind of test: Counterscreen assay for inhibitors of Wee1 degradation: dose response cell-based assay to identify inhibitors of cyclin B degradation. [Related pubchem assays: 1410, 1321 ]. Type of test: functional. (In general: The purpose of a counterscreen is to sort out artefacts and off-target activity.)

Test [13] has as its target X-box-binding protein 1 (Homo sapiens, UniProt P17861). The test is classed as functional, Cricetulus griseus.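 Further: confirmatory dose-response counter-screen serving a CHOP assay.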
Test [14] deals with Glucose-6-phosphate 1-dehydrogenase (Homo sapiens, UniProt P11413). Kind of test: inhibition of Homo sapiens G6PD, dose series – biochemical, fluorescence, selectivity assay for P. falciparum G6PD inhibitor project, dose response (AID 504792). The test is classed as functional.
Test [15] deals with DNA dC->dU-editing enzyme APOBEC-3G (Homo sapiens, UniProt Q9HC16). Kind of test: Dose Response confirmation of small molecule APOBEC3G DNA Deaminase Inhibitors via a fluorescence-based single-stranded DNA deaminase assay. [Related pubchem assays (depositor defined):AID493012, AID493028]. The test is classed as functional.
For test [16], the system named is INS1. Kind of test: INS-1E survival protection against cytokine death – cell-based, luminescence, retest, dose response (AID 449756).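 Further: cell death triggered by IL-1 beta plus TNF-alpha plus IFN-gamma mixture; protective hits raise ATP signal compared with cytokine alone wells.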 Type of test: functional. The following applies: Rattus norvegicus.
Test [17] in a line: reduction of Shn3 3'UTR-driven luciferase in osteoblasts – cell-based, Clone20 osteoblasts, firefly luciferase, cherry-picked, dose response (AID 624132).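 Further: firefly luciferase luminescence from reporter carrying the Shn3 3'UTR in osteoblasts.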 The test is classed as functional.
Test [18] can be described thus: cells. The test is classed as functional, cell-based. The note with it: HEK-CNG.
In test [19] the target is T1, Galanin receptor type 3 (Homo sapiens, UniProt O60755).
T1 sequence (O60755 whole entry): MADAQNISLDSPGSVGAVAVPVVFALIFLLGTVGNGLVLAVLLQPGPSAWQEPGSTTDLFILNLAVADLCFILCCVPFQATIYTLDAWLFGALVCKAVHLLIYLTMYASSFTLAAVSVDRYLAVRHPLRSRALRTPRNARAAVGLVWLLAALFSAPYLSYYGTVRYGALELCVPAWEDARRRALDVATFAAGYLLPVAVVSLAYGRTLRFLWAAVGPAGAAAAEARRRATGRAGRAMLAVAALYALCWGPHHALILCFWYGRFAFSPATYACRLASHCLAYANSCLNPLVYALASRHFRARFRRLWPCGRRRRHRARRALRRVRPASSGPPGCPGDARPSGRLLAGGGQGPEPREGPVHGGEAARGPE
Kind of test: Fluorescence-based cell-based primary high throughput dose response assay to identify antagonists of the Galanin Receptor 3 (GalR3). Type of test: functional.

The nature of test [20]: loss of viability in HepG2 cells – cell-based, CellTiter-Glo, cherry-picked, cytotoxicity control for Shn3 inhibitor project, dose response (AID 624134). Type of test: functional. Background: ATP-based viability assays read luminescence as a measure of living cells.
Test [21] can be described thus: HEK-293T cell viability reduction – luminescence, B-cell screen hits, cytotoxicity control for BCR NF-kB inhibitor project, dose response (AID 489021).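 Further: HEK-293T cells carrying an NF-kB luciferase reporter; cells exposed to compound for about 14 hours before viability readout.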 The test is classed as functional, cell-based.
Test [22] is described as follows: non-specific 3'UTR reporter inhibition in Clone20-Shn3RL – cell-based, Renilla luciferase, cherry-picked, counter-screen for Shn3 inhibitor project, dose response (AID 624133). Type of test: functional.

X-box-binding protein 1, sequence (P17861 whole entry): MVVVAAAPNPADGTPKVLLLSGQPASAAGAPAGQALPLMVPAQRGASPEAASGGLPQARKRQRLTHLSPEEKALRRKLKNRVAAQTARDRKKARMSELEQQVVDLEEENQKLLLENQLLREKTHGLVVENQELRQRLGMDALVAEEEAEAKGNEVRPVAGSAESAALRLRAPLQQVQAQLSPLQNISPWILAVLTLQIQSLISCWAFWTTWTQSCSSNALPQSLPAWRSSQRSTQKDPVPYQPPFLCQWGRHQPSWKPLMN
Beta-galactosidase, sequence (Q8VNN2 whole entry): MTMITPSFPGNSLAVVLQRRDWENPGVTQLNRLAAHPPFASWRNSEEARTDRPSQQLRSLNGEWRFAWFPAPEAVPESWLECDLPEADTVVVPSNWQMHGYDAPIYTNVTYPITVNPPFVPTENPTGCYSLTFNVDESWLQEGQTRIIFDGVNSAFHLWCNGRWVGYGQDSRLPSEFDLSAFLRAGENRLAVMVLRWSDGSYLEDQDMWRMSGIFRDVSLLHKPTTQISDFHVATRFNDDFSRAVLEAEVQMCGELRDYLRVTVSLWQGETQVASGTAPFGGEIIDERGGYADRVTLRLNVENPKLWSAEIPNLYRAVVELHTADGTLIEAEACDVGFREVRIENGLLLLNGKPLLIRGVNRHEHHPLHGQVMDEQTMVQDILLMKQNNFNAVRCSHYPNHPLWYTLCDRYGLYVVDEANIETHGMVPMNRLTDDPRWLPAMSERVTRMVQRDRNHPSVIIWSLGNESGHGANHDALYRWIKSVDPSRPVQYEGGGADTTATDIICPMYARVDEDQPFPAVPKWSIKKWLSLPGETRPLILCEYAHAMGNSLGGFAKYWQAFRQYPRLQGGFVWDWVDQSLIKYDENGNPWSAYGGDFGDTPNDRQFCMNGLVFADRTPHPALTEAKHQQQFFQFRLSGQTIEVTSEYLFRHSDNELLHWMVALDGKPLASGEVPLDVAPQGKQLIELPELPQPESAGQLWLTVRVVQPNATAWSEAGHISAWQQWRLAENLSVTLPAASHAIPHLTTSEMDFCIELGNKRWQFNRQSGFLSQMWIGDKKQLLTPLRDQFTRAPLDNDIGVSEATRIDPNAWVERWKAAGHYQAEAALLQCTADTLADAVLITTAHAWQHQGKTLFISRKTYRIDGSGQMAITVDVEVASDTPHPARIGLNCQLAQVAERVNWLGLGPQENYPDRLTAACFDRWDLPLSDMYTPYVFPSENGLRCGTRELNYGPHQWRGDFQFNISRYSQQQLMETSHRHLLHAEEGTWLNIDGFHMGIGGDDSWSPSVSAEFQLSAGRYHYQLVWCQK
Glucose-6-phosphate 1-dehydrogenase, sequence (P11413 whole entry): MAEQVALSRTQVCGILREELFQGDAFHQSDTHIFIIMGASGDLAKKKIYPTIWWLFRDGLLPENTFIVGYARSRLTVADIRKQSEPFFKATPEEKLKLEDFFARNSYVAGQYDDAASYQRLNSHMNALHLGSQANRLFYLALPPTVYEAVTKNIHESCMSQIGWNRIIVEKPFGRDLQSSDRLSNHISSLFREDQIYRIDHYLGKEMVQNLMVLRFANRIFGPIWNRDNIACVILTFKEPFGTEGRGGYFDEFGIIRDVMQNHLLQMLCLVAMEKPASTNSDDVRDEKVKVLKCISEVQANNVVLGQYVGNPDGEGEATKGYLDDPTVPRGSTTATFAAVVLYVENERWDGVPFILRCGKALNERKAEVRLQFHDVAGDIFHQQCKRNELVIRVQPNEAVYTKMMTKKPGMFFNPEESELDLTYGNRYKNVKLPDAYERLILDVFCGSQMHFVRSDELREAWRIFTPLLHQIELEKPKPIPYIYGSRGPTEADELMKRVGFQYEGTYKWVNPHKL
G2/mitotic-specific cyclin-B1, sequence (P14635 whole entry): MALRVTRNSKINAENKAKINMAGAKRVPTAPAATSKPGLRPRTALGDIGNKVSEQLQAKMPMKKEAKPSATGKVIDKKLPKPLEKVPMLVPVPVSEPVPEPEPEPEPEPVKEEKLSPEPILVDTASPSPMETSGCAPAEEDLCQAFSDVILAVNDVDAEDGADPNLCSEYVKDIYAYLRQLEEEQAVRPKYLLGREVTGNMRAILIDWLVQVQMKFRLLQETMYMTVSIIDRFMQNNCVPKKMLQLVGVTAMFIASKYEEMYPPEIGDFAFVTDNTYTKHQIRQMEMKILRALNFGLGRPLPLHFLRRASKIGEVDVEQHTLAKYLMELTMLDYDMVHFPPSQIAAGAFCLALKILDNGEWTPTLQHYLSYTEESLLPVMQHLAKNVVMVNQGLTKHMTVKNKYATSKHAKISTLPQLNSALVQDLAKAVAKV
Wee1-like protein kinase, sequence (P30291 whole entry): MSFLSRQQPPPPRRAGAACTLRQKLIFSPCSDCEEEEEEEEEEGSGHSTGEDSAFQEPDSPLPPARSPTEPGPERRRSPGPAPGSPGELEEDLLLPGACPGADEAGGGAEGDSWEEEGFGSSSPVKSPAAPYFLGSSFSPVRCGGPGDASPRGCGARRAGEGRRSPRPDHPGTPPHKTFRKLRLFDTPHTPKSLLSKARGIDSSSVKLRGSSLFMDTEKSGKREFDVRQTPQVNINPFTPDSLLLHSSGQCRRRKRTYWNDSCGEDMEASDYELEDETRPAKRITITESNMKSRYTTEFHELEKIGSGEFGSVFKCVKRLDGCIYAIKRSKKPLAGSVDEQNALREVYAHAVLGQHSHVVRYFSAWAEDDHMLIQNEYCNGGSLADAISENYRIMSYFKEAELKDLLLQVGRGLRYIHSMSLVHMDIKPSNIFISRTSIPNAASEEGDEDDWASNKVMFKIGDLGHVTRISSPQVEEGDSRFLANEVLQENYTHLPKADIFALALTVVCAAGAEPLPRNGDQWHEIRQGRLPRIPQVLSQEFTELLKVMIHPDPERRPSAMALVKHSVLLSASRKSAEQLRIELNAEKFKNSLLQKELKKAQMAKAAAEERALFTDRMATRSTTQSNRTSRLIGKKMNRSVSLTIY
DNA dC->dU-editing enzyme APOBEC-3G, sequence (Q9HC16 whole entry): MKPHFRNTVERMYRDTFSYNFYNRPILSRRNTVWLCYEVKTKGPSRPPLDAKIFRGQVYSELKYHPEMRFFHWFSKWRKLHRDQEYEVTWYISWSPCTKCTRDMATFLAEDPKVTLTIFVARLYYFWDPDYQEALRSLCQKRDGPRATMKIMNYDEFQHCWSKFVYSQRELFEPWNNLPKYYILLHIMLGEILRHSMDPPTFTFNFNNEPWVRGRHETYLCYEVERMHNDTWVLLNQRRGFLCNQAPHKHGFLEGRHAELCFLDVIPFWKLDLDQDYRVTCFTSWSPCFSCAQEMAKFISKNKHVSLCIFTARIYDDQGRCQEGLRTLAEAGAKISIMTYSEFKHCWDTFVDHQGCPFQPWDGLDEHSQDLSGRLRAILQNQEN

With `C=C1CC[C@@]2(O)[C@H]3Cc4ccc(O)c5c4[C@@]2(CCN3CC2CC2)[C@H]1O5`, the EC50 in [1] was > 31.5 µM (inactive).

Regarding `O=C(COC(=O)Cn1cnc2ccccc21)Nc1cc2c(cc1Cl)C(=O)c1ccccc1C2=O`, the EC50 is < 0.1 µM (active) in [2]; 0.609 µM (active) in test [3]; > 12 µM (not active) in test [4]; 2.52 µM (active) in [5]; 1.19 µM (active) in [6]; > 12 µM (not active) in test [7]. The EC50 in [8] was 40.4 µM (active); in test [9] it was > 120 µM (not active); in test [10], > 195 µM (inactive).

Regarding `COc1cc(C2=NOC(C(=O)NCc3cccs3)C2)cc(OC)c1OC` (stereo not drawn), the concentration for a half-maximal effect (EC50) in test [11] and in test [12] was > 49.7 µM (not active) each time.

Take `CCOC(=O)c1c(C)[nH]c(C(=O)COC(=O)c2[nH]c(C)c(C(C)=O)c2C)c1C`: the “Absolute IC50 (XBP1)” value in test [13] amounted to 10 µM.

For `CCC1(C)CC(C(N)=S)CCO1` (stereo not drawn), the IC50 in test [14] was > 80 µM (inactive); in test [15], 33.2 µM (active).

As to `COc1ccccc1C(=O)Oc1ccc(C(C)C)cc1`, the “Absolute IC50 (XBP1)” value in test [13] came out at 10 µM.

With `CC(C)(C)c1ccc(-n2ncc3c2CCCC3NC(=O)C2(C(N)=O)CC2)cc1` (stereo not drawn), the half-maximal activity concentration (AC50) is 4.11 µM (active) in [16], 0.589 µM (active) in test [17], 0.807 µM (active) in [20] and 13.4 µM (active) in test [22]. The EC50 in [18] was > 29.9 µM (inactive). In addition, the IC50 is 0.408 µM (active) in [19] and > 80 µM (inactive) in [21].

The term EC50 denotes the midpoint of the concentration-response curve. As usually defined, the IC50 is the midpoint of a concentration-inhibition curve. The AC50 is the concentration at which the activity in the assay is half-maximal.
